We go through seven compounds from PubChem BioAssay (NCI).

Molecules are shown by their SMILES.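 A five-concentration, 48-hour dose response in 96-well plates underlies each endpoint, interpolated linearly between surrounding concentrations. The concentration for full growth arrest is given as TGI.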 Bounds are passed on as bounds.

Among the test systems are A549 NSCLC; COLO 205 colon; HCT-116 colon; HCT-15 colon; KM12 colon; LOX IMVI melanoma; M14 melanoma; MOLT-4 leukemia; NCI-H226 lung; OVCAR-8 ovarian; PC-3 prostate; RPMI-8226 leukemia; SF-295 CNS; SK-MEL-5 melanoma; SNB-75 CNS; UACC-62 melanoma; UO-31 renal; RXF 393 renal; SF-268 CNS.
Assay in all cases: inhibition of tumour cell growth, NCI panel, 48 h

On to `c1ccc(CNc2nncc3[nH]cnc23)cc1`, for which the TGI with A549 NSCLC, in the assay on COLO 205 colon, in the assay on HCT-116 colon, in the assay with HCT-15 colon, in the assay on KM12 colon and in the assay with LOX IMVI melanoma was above 100 µM throughout. The TGI with M14 melanoma, with MOLT-4 leukemia, in the assay on NCI-H226 lung, in the assay on OVCAR-8 ovarian, in the assay with PC-3 prostate and with RPMI-8226 leukemia was above 100 µM each time. Besides, the TGI in the assay with SF-295 CNS, in the assay on SK-MEL-5 melanoma, in the assay with SNB-75 CNS, in the assay with UACC-62 melanoma and in the assay with UO-31 renal was above 100 µM in each case.

In the case of `Cc1ccc2c3c1O[C@H]1c4[nH]c5ccccc5c4C[C@@]4(O)[C@@H](C2)N(CC2CC2)CC[C@]314`, the TGI in the assay on A549 NSCLC stood at 29.7 µM; with COLO 205 colon, 30.8 µM; in the assay with HCT-116 colon, 27.9 µM; in the assay with HCT-15 colon it was 38.1 µM; with KM12 colon it was 32.5 µM; in the assay with LOX IMVI melanoma, 33.1 µM. In addition, the TGI turned out to be 32.4 µM with M14 melanoma; 32.9 µM with MOLT-4 leukemia; 30.5 µM with NCI-H226 lung; 34.3 µM with OVCAR-8 ovarian; 24.9 µM in the assay on PC-3 prostate; 29.4 µM in the assay on RPMI-8226 leukemia. Moreover, the TGI in the assay on RXF 393 renal was 20.8 µM; with SF-268 CNS, 30.1 µM; in the assay with SF-295 CNS, 31.1 µM; in the assay on SK-MEL-5 melanoma, 27.8 µM; in the assay with UACC-62 melanoma, 30.1 µM; in the assay with UO-31 renal, 26.8 µM.

With `O=C(/C=C/c1ccc2ccccc2c1)NCc1ccc(C(=O)NCCc2ccccc2)cc1`, the TGI in the assay on A549 NSCLC, in the assay on COLO 205 colon, in the assay with HCT-116 colon, in the assay on HCT-15 colon, with KM12 colon and in the assay on LOX IMVI melanoma was above 100 µM in each case. Besides, the TGI in the assay on M14 melanoma, in the assay on MOLT-4 leukemia, with NCI-H226 lung, in the assay on OVCAR-8 ovarian, with PC-3 prostate and in the assay with RPMI-8226 leukemia was above 100 µM each time. Moreover, the TGI with RXF 393 renal, in the assay with SF-268 CNS, in the assay on SF-295 CNS, in the assay with SK-MEL-5 melanoma, in the assay on SNB-75 CNS and in the assay on UACC-62 melanoma was above 100 µM throughout. The TGI in the assay on UO-31 renal is above 100 µM.

With `O=C1NC(=S)NC(=O)C1C(c1ccc(O)cc1)C1C(=O)NC(=S)NC1=O`, the TGI with A549 NSCLC, with COLO 205 colon, in the assay on HCT-116 colon, with HCT-15 colon, in the assay with KM12 colon and in the assay on LOX IMVI melanoma was above 100 µM each time. Besides, the TGI with M14 melanoma, in the assay with MOLT-4 leukemia, in the assay on NCI-H226 lung, in the assay with OVCAR-8 ovarian, with PC-3 prostate and in the assay with RPMI-8226 leukemia was above 100 µM throughout. Also, the TGI in the assay on RXF 393 renal, with SF-295 CNS, in the assay with SK-MEL-5 melanoma, in the assay on UACC-62 melanoma and with UO-31 renal was above 100 µM throughout.

For the compound `CC(C)=CCC(O)[C@](C)(O)[C@H]1[C@H](O)C[C@@]2(C)[C@@H]3CCc4cc(O)c(OC5OC(CO)C(O)C(O)C5O)cc4C3(C)C(=O)C[C@]12C` (stereo partly drawn), the TGI in the assay with A549 NSCLC, with COLO 205 colon, with HCT-116 colon, in the assay on HCT-15 colon, in the assay with KM12 colon and in the assay with M14 melanoma was above 100 µM throughout. Besides, the TGI in the assay with MOLT-4 leukemia, with NCI-H226 lung, in the assay with OVCAR-8 ovarian, in the assay on PC-3 prostate, in the assay with RXF 393 renal and in the assay with SF-268 CNS was above 100 µM throughout. Also, the TGI in the assay on SF-295 CNS, in the assay with SK-MEL-5 melanoma, in the assay with SNB-75 CNS, with UACC-62 melanoma and with UO-31 renal was above 100 µM each time.

In the case of `CC(C)OC(=O)/C=C/C(=O)O/C=C/[N+](=O)[O-]`, the TGI was above 100 µM with A549 NSCLC; 38.3 µM in the assay with COLO 205 colon; 54.3 µM with HCT-116 colon; above 100 µM with HCT-15 colon; 70.6 µM with KM12 colon; 32.9 µM in the assay on LOX IMVI melanoma. Further, the TGI in the assay with M14 melanoma is above 100 µM; with MOLT-4 leukemia, 36.5 µM; in the assay on NCI-H226 lung, above 100 µM; with OVCAR-8 ovarian it was above 100 µM; in the assay with PC-3 prostate, above 100 µM; in the assay on RPMI-8226 leukemia, 33.9 µM. Further, the TGI was 44 µM in the assay on RXF 393 renal; 68.7 µM with SF-268 CNS; above 100 µM in the assay with SF-295 CNS; above 100 µM with SK-MEL-5 melanoma; 84.7 µM with UACC-62 melanoma; above 100 µM with UO-31 renal.

Take `CC(C)=C[C@H]1CCC2(OCCO2)[C@]1(C)CO`: the TGI with A549 NSCLC, with COLO 205 colon, in the assay on HCT-116 colon, with HCT-15 colon, in the assay with KM12 colon and in the assay on LOX IMVI melanoma was above 100 µM throughout. Moreover, the TGI with M14 melanoma, with NCI-H226 lung, in the assay on OVCAR-8 ovarian, in the assay with PC-3 prostate, in the assay with RPMI-8226 leukemia and in the assay with RXF 393 renal was above 100 µM each time. Also, the TGI in the assay on SF-268 CNS, in the assay on SF-295 CNS, in the assay on SK-MEL-5 melanoma, in the assay with SNB-75 CNS and in the assay on UO-31 renal was above 100 µM in each case.
